Experiments:
[1] = target: wild-type human cardiac sodium channel, hNav1.5 (Homo sapiens, UniProt Q14524); assay: Late INa screening assay (QPatch whole cell patch clamp, Tefluthrin-induced late current); format: cell-based; settings: HEK293 hNav1.5, percent block of late INa
Method: The cardiac late sodium current (Late INa) and peak sodium current (Peak INa) assays are performed on an automated electrophysiology platform, QPatch 16X or QPatch HT (Sophion Bioscience, Copenhagen, Denmark) using the whole cell patch clamp technique to measure currents through the cell membrane. The assay uses an HEK293 (human embryonic kidney) cell line heterologously expressing the wild-type human cardiac sodium channel, hNav1.5, purchased from Millipore (Billerica, Mass.). No beta subunits were coexpressed with the Na channel alpha subunit. Cells are maintained with standard tissue culture procedures and stable channel expression is maintained with 400 μg/mL Geneticin in the culture medium. Experiments are carried out at 23-25° C.
For both the Late INa and Peak INa assays, series resistance compensation is set to 100% and series resistance and whole-cell compensation are performed automatically. Currents are digitized at 25 kHz and low-pass filtered at 5 kHz and stored in the Sophion Bioscience Oracle database (Sophion Bioscience, Copenhagen, Denmark). Analysis is performed using QPatch Assay software and data are compiled in Excel 2010 (Microsoft, Seattle, Wash., U.S.A.).
Compound stocks are routinely made by the Gilead Sample Bank in vials to 10 mM in dimethyl sulfoxide (DMSO). In some cases, when compounds are not soluble in DMSO, they are made in 100% ethanol. Stocks are sonicated as necessary. The extracellular solution for screening Late INa is composed of: 140 mM NaCl, 4 mM KCl, 1.8 mM CaCl2, 1 mM MgCl2, 10 mM HEPES and 10 mM Dextrose with pH adjusted to 7.35 using NaOH. The intracellular solution contains: 105 mM CsF, 20 mM CsCl, 10NaF, 2 mM EGTA, 10 mM HEPES and 10 mM Dextrose with pH adjusted to 7.35 with CsOH. Compounds are diluted in extracellular solution using a MicroLab Nimbus (Hamilton Robotics, Reno, Nev.) to between 0.3 and 3 μM in glass vials and transferred to glass well plates before robotic addition to the cells. The 0 mM Na extracellular solution (0Na-ECF) used at the end of each experiment for the Late INa and Peak INa assays to measure baseline current contains: 140 Choline-Cl; 4 mM KCl, 1.8 mM CaCl2; 1 mM MgCl2; 10 mM HEPES and 10 mM Dextrose with pH was adjusted to 7.35 with CsOH.
For the Late INa assay, sodium channels are activated every 10 seconds (0.1 Hz) by depolarizing the cell membrane to −20 mV for 250 milliseconds (ms) from a holding potential of −120 mV.
Compounds were tested to determine their activity in blocking the late sodium current. Late INa was generated by adding 10 μM Tefluthrin (pyrethroid) to the extracellular solution. For the purposes of the screening, Late INa is defined as the mean current between […] during the voltage step to −20 mV. After establishing the whole cell recording configuration, Late INa activator is added to each well 4 times over a 15 minute period so that the late component of the Na current reaches a stable value. Compounds were then added (typically at 0.3 or 1 μM), in the presence of the Late Na^+ activator, with 3 additions over the course of 5 minutes. Measurements were made at the end of exposure to the third compound addition and values were normalized to the current level when all Na^+ was removed from the extracellular solution after two additions of 0Na-ECF.
Results are reported as percent block of late INa and results were analyzed by incorporating rundown correction for the Late INa.

hNaV1.2 (SCN2A) = target: T1, hNaV1.2 (SCN2A) (Homo sapiens, UniProt Q99250); assay: Use-dependent inhibition of the CNS Nav1.2 sodium channel; format: cell-based; settings: use-dependent block, 25 Hz, pulse 20, read-out: Nav1.2 UDB 25 Hz 10 uM
T1 construct: expressed in transfected cells
T1 sequence (Q99250 whole entry): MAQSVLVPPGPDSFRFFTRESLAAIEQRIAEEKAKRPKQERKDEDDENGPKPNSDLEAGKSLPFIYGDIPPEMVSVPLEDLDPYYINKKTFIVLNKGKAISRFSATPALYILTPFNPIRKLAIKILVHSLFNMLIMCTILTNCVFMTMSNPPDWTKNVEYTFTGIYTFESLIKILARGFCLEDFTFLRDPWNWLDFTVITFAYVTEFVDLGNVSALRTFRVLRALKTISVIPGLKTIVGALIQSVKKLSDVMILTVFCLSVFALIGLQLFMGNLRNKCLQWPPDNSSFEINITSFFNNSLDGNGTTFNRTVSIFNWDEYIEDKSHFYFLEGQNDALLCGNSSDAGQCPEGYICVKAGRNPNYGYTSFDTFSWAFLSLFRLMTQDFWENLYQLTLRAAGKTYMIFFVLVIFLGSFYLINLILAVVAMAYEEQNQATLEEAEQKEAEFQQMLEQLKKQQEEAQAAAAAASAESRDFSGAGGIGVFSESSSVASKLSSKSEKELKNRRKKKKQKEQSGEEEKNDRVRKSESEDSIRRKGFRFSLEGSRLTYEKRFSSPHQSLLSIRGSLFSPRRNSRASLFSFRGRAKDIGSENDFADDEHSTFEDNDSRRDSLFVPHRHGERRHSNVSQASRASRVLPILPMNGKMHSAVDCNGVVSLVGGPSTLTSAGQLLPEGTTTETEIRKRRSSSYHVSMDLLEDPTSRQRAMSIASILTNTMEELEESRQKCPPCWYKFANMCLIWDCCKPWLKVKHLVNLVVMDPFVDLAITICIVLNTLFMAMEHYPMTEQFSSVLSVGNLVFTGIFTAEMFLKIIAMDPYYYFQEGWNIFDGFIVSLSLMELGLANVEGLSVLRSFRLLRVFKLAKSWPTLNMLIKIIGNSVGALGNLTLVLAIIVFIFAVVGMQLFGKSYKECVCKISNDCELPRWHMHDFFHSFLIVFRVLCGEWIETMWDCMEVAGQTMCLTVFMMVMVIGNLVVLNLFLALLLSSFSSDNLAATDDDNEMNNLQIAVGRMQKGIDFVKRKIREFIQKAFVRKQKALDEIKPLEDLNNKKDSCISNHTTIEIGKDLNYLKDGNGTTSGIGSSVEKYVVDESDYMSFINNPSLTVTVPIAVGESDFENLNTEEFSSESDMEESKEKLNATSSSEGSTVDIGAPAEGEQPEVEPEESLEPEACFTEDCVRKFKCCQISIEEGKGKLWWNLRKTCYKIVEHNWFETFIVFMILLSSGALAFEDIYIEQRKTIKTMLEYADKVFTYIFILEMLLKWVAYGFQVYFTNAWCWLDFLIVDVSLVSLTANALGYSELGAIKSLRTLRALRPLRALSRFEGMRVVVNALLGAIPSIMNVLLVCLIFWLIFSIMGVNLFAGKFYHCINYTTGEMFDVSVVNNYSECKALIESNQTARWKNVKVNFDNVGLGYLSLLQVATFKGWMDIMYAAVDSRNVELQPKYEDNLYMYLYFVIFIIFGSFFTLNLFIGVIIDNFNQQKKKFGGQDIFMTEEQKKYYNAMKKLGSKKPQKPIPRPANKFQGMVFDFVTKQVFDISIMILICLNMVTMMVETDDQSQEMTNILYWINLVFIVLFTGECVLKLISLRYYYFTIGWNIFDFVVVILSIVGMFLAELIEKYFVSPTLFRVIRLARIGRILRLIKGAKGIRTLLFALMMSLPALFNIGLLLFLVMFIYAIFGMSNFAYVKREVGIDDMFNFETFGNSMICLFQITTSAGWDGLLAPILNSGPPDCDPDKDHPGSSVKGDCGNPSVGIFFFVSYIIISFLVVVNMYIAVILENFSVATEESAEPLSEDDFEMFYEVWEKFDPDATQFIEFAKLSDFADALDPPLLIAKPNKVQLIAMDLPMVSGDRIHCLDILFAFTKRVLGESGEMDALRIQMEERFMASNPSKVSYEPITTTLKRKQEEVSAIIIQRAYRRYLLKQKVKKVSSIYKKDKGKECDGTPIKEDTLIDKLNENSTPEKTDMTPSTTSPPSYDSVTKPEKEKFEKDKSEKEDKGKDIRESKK
T1 sequence (Q07699 19-218 partner): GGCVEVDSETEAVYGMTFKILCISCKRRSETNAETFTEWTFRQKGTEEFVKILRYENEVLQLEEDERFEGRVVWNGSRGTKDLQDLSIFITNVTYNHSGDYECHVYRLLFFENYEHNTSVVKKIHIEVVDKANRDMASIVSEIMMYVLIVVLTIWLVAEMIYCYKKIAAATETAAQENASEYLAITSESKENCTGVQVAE
T1 sequence (O60939 30-215 partner): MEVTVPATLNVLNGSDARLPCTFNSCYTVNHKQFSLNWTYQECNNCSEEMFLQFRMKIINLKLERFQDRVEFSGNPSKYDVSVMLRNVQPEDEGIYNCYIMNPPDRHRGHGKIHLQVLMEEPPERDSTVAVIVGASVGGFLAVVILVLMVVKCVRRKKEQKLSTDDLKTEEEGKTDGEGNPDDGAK
Method: HEK-293 cells stably expressing wild-type (WT) hNaV1.2 (SCN2A NCBI # NM_021007.2, SCN1B NCBI # NM_001037.4, SCN2B NCBI # NM_004588.2) were used to record INa. Cells are maintained with standard tissue culture procedures and stable channel expression is maintained with 800 ug/mL G418 and 3 ug/mL Puromycin in the culture medium. Unless otherwise noted, all reagents are purchased from Sigma-Aldrich (St Louis, Mo., U.S.A.).
Assays measuring Use-Dependent Block (UDB) of Nav1.2 are performed on an automated electrophysiology platform, QPatch 16X or QPatch HT (Sophion Bioscience, Copenhagen, Denmark), using the whole cell patch clamp technique to measure currents through the cell membrane. Series resistance compensation is set to 100% and series resistance and whole-cell compensation are performed automatically. Currents stored in the Sophion Bioscience Oracle database (Sophion Bioscience, Copenhagen, Denmark). Analysis is performed using QPatch Assay software and data are compiled in Excel 2010 (Microsoft, Seattle, Wash., U.S.A.).
The internal (pipette) solution consists of (in mM) 105 CsF, 10 NaF, 20 CsCl, 2 EGTA, 10 HEPES, 10 Dextrose with a pH of 7.35 and osmolarity of 300 mOsmol/kg. The external (bath) solution contains in (mM): 145 NaCl, 4 KCl, 1.8 CaCl2, 1 MgCl2, 10 dextrose, 10 HEPES, with a pH of 7.35 and osmolarity of 310 mOsmol/kg. Experiments are carried out at 23-25° C.
Compound stocks are routinely made by the Gilead Sample Bank in vials to 10 mM in dimethyl sulfoxide (DMSO). In some cases, when compounds are not soluble in DMSO, they are made in 100% ethanol. Stocks are sonicated as necessary. […]
Cells are allowed to stabilize for 10 min after establishment of the whole-cell configuration before current is measured. The test compound is applied 2 times at 60 second intervals. After the second compound addition, a 200 second wait period was imposed to allow for equilibration. Leak currents are subtracted by using an online P/4 procedure and all currents are low-pass Bessel filtered at 5 kHz and digitized at […].
Results are presented as mean percentage inhibition.
Use-dependent block of Nav1.2 peak current is measured during pulse number 20 of a voltage pulse train (0 mV, 20 ms, 20 pulses, 25 Hz) from a holding potential of −120 mV.
Currents are normalized to the peak current recorded in response to the first pulse in each frequency train. The voltage protocol for UDB was performed in the absence and presence of compound and percentage inhibition was calculated with respect to the compound free condition.

wild-type human cardiac sodium channel, hNav1.5, sequence (Q14524 whole entry): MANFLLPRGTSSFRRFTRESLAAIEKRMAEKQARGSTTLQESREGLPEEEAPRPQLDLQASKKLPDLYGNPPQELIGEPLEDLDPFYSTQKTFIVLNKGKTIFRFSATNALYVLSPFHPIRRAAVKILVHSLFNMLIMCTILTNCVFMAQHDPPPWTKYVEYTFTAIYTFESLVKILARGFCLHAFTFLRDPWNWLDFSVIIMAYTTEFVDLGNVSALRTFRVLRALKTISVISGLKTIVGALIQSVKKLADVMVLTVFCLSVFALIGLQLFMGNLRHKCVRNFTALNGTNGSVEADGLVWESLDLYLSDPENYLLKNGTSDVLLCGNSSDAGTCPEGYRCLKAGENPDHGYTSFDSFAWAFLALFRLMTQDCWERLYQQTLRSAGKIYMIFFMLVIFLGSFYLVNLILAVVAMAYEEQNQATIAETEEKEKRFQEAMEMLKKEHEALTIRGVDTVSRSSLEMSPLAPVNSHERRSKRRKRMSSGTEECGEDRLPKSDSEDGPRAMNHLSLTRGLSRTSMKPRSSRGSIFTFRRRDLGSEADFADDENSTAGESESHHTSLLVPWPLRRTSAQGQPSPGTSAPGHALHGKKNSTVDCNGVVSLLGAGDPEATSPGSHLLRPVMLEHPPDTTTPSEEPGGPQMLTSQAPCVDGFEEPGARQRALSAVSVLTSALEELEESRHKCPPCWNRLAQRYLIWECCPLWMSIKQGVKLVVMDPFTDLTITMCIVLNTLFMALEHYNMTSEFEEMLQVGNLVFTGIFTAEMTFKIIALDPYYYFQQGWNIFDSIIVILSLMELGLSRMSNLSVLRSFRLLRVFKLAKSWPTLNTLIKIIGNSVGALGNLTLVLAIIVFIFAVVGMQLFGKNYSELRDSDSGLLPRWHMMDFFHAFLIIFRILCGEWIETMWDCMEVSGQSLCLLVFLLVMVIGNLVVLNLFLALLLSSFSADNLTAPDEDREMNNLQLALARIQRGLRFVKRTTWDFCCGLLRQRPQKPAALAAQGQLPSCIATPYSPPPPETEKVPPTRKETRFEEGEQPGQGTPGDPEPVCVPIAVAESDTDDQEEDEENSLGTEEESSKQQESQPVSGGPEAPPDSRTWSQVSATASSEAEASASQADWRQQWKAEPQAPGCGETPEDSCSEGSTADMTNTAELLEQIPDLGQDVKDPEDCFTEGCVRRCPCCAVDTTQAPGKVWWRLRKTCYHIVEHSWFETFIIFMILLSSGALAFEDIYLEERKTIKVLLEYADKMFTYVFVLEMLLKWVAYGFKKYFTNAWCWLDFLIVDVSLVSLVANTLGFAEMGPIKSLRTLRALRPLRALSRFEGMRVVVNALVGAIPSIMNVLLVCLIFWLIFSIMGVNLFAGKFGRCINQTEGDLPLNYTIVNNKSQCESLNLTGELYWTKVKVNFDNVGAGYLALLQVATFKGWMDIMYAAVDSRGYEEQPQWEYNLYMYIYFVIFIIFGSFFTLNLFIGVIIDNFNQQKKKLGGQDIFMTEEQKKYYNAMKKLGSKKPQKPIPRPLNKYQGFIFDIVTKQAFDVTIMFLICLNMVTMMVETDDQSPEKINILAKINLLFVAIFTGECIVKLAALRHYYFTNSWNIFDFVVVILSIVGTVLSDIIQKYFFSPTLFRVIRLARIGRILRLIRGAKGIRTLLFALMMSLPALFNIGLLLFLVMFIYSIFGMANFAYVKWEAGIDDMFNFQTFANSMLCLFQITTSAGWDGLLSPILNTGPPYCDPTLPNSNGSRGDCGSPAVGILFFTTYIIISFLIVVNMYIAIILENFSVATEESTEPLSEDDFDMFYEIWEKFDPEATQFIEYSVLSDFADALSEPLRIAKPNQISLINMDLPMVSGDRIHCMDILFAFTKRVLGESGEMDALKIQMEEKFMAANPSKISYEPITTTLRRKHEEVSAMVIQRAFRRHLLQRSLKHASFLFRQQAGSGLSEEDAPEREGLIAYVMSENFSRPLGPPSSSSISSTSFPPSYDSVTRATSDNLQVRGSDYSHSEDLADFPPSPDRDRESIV

Compound | inhibition at 0.3 µM [1] [%] | inhibition at 1 µM [1] [%] | inhibition at 10 µM (hNaV1.2 (SCN2A)) [%]
Cc1ccnc(COc2noc3ccc(-c4ccc(OC(F)(F)F)cc4)cc23)n1 [Example 5, 3-((4-methylpyrimidin-2-yl)methoxy)-5-(4-(trifluoromethoxy)phenyl)benzo[d]isoxazole] | 38.2 | 54.5 | < 5
FC(F)(F)Oc1ccc(-c2ccc3onc(OCc4ncco4)c3c2)cc1 [Example 53, 3-(oxazol-2-ylmethoxy)-5-(4-(trifluoromethoxy)phenyl)benzo[d]isoxazole] | 31.1 | 57 | < 5
FC(F)(F)Oc1ccc(-c2ccc3onc(OCCNc4ncccn4)c3c2)cc1 [Example 123, N-(2-((5-(4-(trifluoromethoxy)phenyl)benzo[d]isoxazol-3-yl)oxy)ethyl)pyrimidin-2-amine] |  | 36.3 | < 5
FC(F)(F)Oc1ccc(-c2ccc3onc(OCCn4cncn4)c3c2)cc1 [Example 58, 3-(2-(1H-1,2,4-triazol-1-yl)ethoxy)-5-(4-(trifluoromethoxy)phenyl)benzo[d]isoxazole] | 36.7 | 55 | 14.5
COc1cc2onc(OCc3ncccn3)c2cc1-c1ccc(F)c(Cl)c1 [Example 15, 5-(3-chloro-4-fluorophenyl)-6-methoxy-3-(pyrimidin-2-ylmethoxy)benzo[d]isoxazole] |  | 32.2 | < 5
COc1ccnc(COc2noc3ccc(-c4ccc(OC(F)(F)F)cc4)cc23)n1 [Example 67, 3-((4-methoxypyrimidin-2-yl)methoxy)-5-(4-(trifluoromethoxy)phenyl)benzo[d]isoxazole] | 54.4 | 77.4 | < 5
CC(=O)N1CCC[C@H]1COc1noc2ccc(-c3ccc(OC(F)(F)F)cc3)cc12 [Example 109, (S)-1-(2-(((5-(4-(trifluoromethoxy)phenyl)benzo[d]isoxazol-3-yl)oxy)methyl)pyrrolidin-1-yl)ethan-1-one] | 25.3 | 65.7 | 39.3
FC(F)(F)Oc1ccc(-c2ccc3onc(-n4ccnc4)c3c2)cc1 [Example 132, 3-(1H-imidazol-1-yl)-5-(4-(trifluoromethoxy)phenyl)benzo[d]isoxazole] |  | 40.5 | < 5
FC(F)(F)Oc1ccc(-c2ccc3onc(-n4cnc(C(F)(F)F)c4)c3c2)cc1 [Example 145, 5-(4-(trifluoromethoxy)phenyl)-3-(4-(trifluoromethyl)-1H-imidazol-1-yl)benzo[d]isoxazole] | 61.7 | 84.9 | 75.8
FC(F)(F)Oc1ccc(-c2ccc3onc(Oc4ncccn4)c3c2)cc1 [Example 124, 3-(pyrimidin-2-yloxy)-5-(4-(trifluoromethoxy)phenyl)benzo[d]isoxazole] |  | 53.7 | 44.9
C[C@@H](N)COc1noc2ccc(-c3ccc(OC(F)(F)F)cc3)cc12 [Example 117, (R)-1-((5-(4-(trifluoromethoxy)phenyl)benzo[d]isoxazol-3-yl)oxy)propan-2-amine] | 39.4 | 78.1 | 88.4
O=C1CCCN1CCOc1noc2ccc(-c3ccc(OC(F)(F)F)cc3)cc12 [Example 59, 1-(2-((5-(4-(trifluoromethoxy)phenyl)benzo[d]isoxazol-3-yl)oxy)ethyl)pyrrolidin-2-one] | 43.7 | 60.4 | 37.4
FC(F)(F)Oc1ccc(-c2ccc3onc(OCC4CCO4)c3c2)cc1 (stereo not shown) [Example 42, 3-(oxetan-2-ylmethoxy)-5-(4-(trifluoromethoxy)phenyl)benzo[d]isoxazole] | 17.5 | 57.3 | < 5
Cc1nccnc1COc1noc2ccc(-c3ccc(OC(F)(F)F)cc3)cc12 [Example 152, 3-((3-methylpyrazin-2-yl)methoxy)-5-(4-(trifluoromethoxy)phenyl)benzo[d]isoxazole] | 19.8 | 53.4 | 13.8
N#CCOc1noc2ccc(-c3ccc(OC(F)(F)F)cc3)cc12 [Example 103, 2-((5-(4-(trifluoromethoxy)phenyl)benzo[d]isoxazol-3-yl)oxy)acetonitrile] |  | 38.9 | < 5
FC(F)(F)Oc1ccc(-c2ccc3onc(OCc4cnccn4)c3c2)cc1 [Example 151, 3-(pyrazin-2-ylmethoxy)-5-(4-(trifluoromethoxy)phenyl)benzo[d]isoxazole] | 50.7 | 70.1 | 18.6
Fc1cc(-c2ccc3onc(OCc4ncccn4)c3c2)ccc1Cl [Example 8, 5-(4-chloro-3-fluorophenyl)-3-(pyrimidin-2-ylmethoxy)benzo[d]isoxazole] |  | 52.6 | < 5
O=C1CCCN1CCNc1noc2ccc(-c3ccc(OC(F)(F)F)cc3)cc12 [Example 135, 1-(2-((5-(4-(trifluoromethoxy)phenyl)benzo[d]isoxazol-3-yl)amino)ethyl)pyrrolidin-2-one] | 19.7 | 48.8 | 76.5
Cc1cc(-c2ccc3onc(OCc4ncccn4)c3c2)ccc1OC(F)(F)F [Example 7, 5-(3-methyl-4-(trifluoromethoxy)phenyl)-3-(pyrimidin-2-ylmethoxy)benzo[d]isoxazole] |  | 47.5 | < 5
FC(F)(F)Oc1ccc(-c2ccc3onc(NCC4CC4)c3c2)cc1 [Example 128, N-(cyclopropylmethyl)-5-(4-(trifluoromethoxy)phenyl)benzo[d]isoxazol-3-amine] |  | 42 | < 5

From patent US9416115B2, “Fused heterocyclic compounds as ion channel modulators” (Gilead Sciences, Inc., priority 2013, dated 2016)
